Where two headings read alike, the source gives them in different places.
How the values were obtained:
NF-kB = NF-kB reporter assay in Jurkat cells stimulated with aCD3/aCD28/PMA; assay type: cell-based; conditions: read-out: NF-kB Reporter Assay IC50
Method in brief: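 Stimulation used final aCD3 5 μg/mL, aCD28 5 μg/mL and PMA 0.03 μg/mL for 4 hr at 37° C, after 1 hr compound pretreatment of 25,000 serum-starved Jurkat cells per well. One-Glo luminescence gave IC50 values.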

MALT1 = biological target: T1, MALT1 (Homo sapiens, UniProt Q9UDY8); assay: MALT-1 Fluorogenic Peptide Cleavage Assay (MALT1 inhibition assay); assay type: biochemical; conditions: Avi-tagged FL MALT-1, Ac-LRSR-AMC peptide substrate, 30 min pre-incubation, 90 min reaction
T1 construct: Avi-tagged FL MALT-1 (Pharmaron, stored at −70° C.); Avi tag
T1 sequence (Q9UDY8 1-824): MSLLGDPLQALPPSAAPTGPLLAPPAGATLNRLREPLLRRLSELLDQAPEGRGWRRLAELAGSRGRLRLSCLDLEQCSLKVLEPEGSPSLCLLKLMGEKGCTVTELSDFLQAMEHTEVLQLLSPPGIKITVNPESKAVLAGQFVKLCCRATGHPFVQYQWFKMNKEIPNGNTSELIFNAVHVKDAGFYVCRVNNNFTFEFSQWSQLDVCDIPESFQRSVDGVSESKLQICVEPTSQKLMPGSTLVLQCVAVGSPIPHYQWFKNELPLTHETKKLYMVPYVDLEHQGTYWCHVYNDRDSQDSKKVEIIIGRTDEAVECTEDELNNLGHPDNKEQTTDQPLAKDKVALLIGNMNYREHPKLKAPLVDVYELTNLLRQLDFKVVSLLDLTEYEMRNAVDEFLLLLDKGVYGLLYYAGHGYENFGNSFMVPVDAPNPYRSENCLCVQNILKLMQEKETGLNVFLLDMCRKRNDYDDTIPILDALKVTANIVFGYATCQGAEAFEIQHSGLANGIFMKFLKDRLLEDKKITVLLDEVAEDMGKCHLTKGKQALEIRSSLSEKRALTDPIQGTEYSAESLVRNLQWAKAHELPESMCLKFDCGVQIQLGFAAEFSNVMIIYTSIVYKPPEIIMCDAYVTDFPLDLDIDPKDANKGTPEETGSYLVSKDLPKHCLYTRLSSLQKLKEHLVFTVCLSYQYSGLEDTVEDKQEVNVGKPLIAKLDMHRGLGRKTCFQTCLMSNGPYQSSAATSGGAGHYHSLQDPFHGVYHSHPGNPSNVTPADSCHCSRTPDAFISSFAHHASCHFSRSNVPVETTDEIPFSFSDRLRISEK
Method in brief: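 IC50 from sigmoidal fits of % inhibition, with fluorescence (ex 342, em 441 nm) from AMC released from the quenched LRSR peptide after 90 min at room temperature. Full-length Avi-tagged MALT1 saw compound for 30 min first; final DMSO 2%.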

[1] = Homo sapiens, Jurkat, Jurkat cells, 1 hr compound incubation, aCD3/aCD28/PMA stimulation 4 hr, One-Glo readout

Compound	IC50 (NF-kB; [1])	IC50 (MALT1)	IC50 (NF-kB; Homo sapiens, Jurkat)	IC50 (NF-kB; Jurkat cells, 1 hr compound incubation, aCD3/aCD28/PMA stimulation 4 hr, One-Glo readout)
COc1ccc2cnn(C)c2c1NS(=O)(=O)c1ccc(C(C)(C)O)nc1 [Example I-178, 6-(2-Hydroxypropan-2-yl)-N-(6-Methoxy-1-Methyl-1H-Indazol-7-yl)Pyridine-3-Sulfonamide]	> 2500 nM	> 2500 nM		
COc1cnn(-c2ccc(S(=O)(=O)Nc3cccc4cnn(C)c34)cn2)c1 [Example I-35, 6-(4-Methoxy-1H-Pyrazol-1-yl)-N-(1-Methyl-1H-Indazol-7-yl)Pyridine-3-Sulfonamide]	< 400 nM	> 2500 nM		
COCCn1ncc2cccc(NS(=O)(=O)c3ccc(-n4nccc4C(C)C)nc3)c21 [Example I-232, 6-(5-isopropyl-1H-pyrazol-1-yl)-N-(1-(2-methoxyethyl)-1H-indazol-7-yl)pyridine-3-sulfonamide]	> 2500 nM	> 2500 nM		
COc1ccc2cnn(C)c2c1NS(=O)(=O)c1ccc(-n2cc(F)cn2)nc1 [Example I-150, 6-(4-Fluoro-1H-Pyrazol-1-yl)-N-(6-Methoxy-1-Methyl-1H-Indazol-7-yl)Pyridine-3-Sulfonamide]	< 400 nM	< 400 nM		
Cn1ncc2cccc(NS(=O)(=O)c3ccc(-c4cnn5c4CCCC5)nc3)c21 [Example I-272, N-(1-methyl-1H-indazol-7-yl)-6-(4,5,6,7-tetrahydropyrazolo[1,5-a]pyridin-3-yl)pyridine-3-sulfonamide]	< 400 nM	> 2500 nM		
[2H]C([2H])([2H])n1ncc2ccc(OC)c(NS(=O)(=O)c3ccc(-n4cc(C(F)(F)F)cn4)nc3)c21 [Example I-75, N-(6-Methoxy-1-(Methyl-D3)-1H-Indazol-7-yl)-6-(4-(Trifluoromethyl)-1H-Pyrazol-1-yl)Pyridine-3-Sulfonamide]	< 400 nM	< 400 nM		
COc1ccc2cnn(C)c2c1N(C)S(=O)(=O)c1ccc(-c2cc(C(F)(F)F)n(C)n2)nc1 [Example I-165, N-(6-Methoxy-1-Methyl-1H-Indazol-7-yl)-N-Methyl-6-(1-Methyl-5-(Trifluoromethyl)-1H-Pyrazol-3-yl)Pyridine-3-Sulfonamide]	< 400 nM	< 400 nM		
Cn1ncc2cccc(NS(=O)(=O)c3ccc(-n4ncc5c4CCCC5)nc3)c21 [Example I-227, N-(1-Methyl-1H-Indazol-7-yl)-6-(4,5,6,7-Tetrahydro-1H-Indazol-1-yl)Pyridine-3-Sulfonamide]	< 400 nM	1000 to 2500 nM		
CC(C)c1ccn(-c2ccc(S(=O)(=O)Nc3cccc4cnn(C)c34)cn2)n1 [Example I-36, 6-(3-Isopropyl-1H-Pyrazol-1-yl)-N-(1-Methyl-1H-Indazol-7-yl)Pyridine-3-Sulfonamide]	< 400 nM	> 2500 nM		
Cn1nc(-c2ccc(S(=O)(=O)Nc3cccc4cnn(C)c34)cn2)c2c1CCOC2 [Example I-306, 6-(1-methyl-1,4,6,7-tetrahydropyrano[4,3-c]pyrazol-3-yl)-N-(1-methyl-1H-indazol-7-yl)pyridine-3-sulfonamide]	< 400 nM	> 2500 nM		
Cc1cc(-c2ccc(S(=O)(=O)Nc3cccc4cnn(C)c34)cn2)n(C)n1 [Example I-119, 6-(2,5-Dimethylpyrazol-3-yl)-N-(1-Methyl-Indazol-7-yl)Pyridine-3-Sulfonamide]	< 400 nM	> 2500 nM		
COc1ccc2cnn(C)c2c1NS(=O)(=O)c1ccc(-c2cnn3c2COCC3)nc1 [Example I-308]	< 400 nM	1000 to 2500 nM		
Cn1ncc2cccc(NS(=O)(=O)c3ccc(-c4cc5cnccc5[nH]4)nc3)c21 [Example I-77, N-(1-Methyl-1H-Indazol-7-yl)-6-(1H-Pyrrolo[3,2-C]Pyridin-2-yl)Pyridine-3-Sulfonamide]	> 2500 nM	> 2500 nM		
Cn1ccn(-c2ccc(S(=O)(=O)Nc3cccc4cnn(C)c34)cn2)c1=O [Example I-209, N-(1-Methyl-1H-Indazol-7-yl)-6-(3-Methyl-2-Oxo-2,3-Dihydro-1H-Imidazol-1-yl)Pyridine-3-Sulfonamide]	< 400 nM	> 2500 nM		
Cn1ncc2cccc(NS(=O)(=O)c3ccc(-n4cc5c(n4)CCCC5)nc3)c21 [Example I-233, N-(1-methyl-1H-indazol-7-yl)-6-(4,5,6,7-tetrahydro-2H-indazol-2-yl)pyridine-3-sulfonamide]	< 400 nM	400 to 1000 nM		
COc1ccc2cnn(C)c2c1NS(=O)(=O)c1ccc(-c2nnc(C)o2)nc1 [Example I-170, N-(6-Methoxy-1-Methyl-1H-Indazol-7-yl)-6-(5-Methyl-1,3,4-Oxadiazol-2-yl)Pyridine-3-Sulfonamide]	> 2500 nM	> 2500 nM		
COc1ccc2cnn(C)c2c1NS(=O)(=O)c1ccc(-c2nnc(C)n2C)nc1 [Example I-168, 6-(4,5-dimethyl-4H-1,2,4-triazol-3-yl)-N-(6-methoxy-1-methyl-1H-indazol-7-yl)pyridine-3-sulfonamide]	> 2500 nM	> 2500 nM		
COc1ncc2cnn(C)c2c1NS(=O)(=O)c1ccc(-n2cc(C(F)(F)F)cn2)nc1 [Example I-74, N-(6-methoxy-1-methyl-1H-pyrazolo[4,3-c]pyridin-7-yl)-6-(4-(trifluoromethyl)-1H-pyrazol-1-yl)pyridine-3-sulfonamide]		< 400 nM	< 400 nM	
COc1ncc2cnn(C)c2c1NS(=O)(=O)c1ccc(-n2ccc(C3CC3)n2)nc1 [Example I-185, 6-(3-cyclopropyl-1H-pyrazol-1-yl)-N-(6-methoxy-1-methyl-1H-pyrazolo[4,3-c]pyridin-7-yl)pyridine-3-sulfonamide]	< 400 nM	< 400 nM		
Cc1ncc(-c2ccc(S(=O)(=O)Nc3cccc4cnn(C)c34)cn2)cn1 [Example I-135, N-(1-Methyl-1H-Indazol-7-yl)-6-(2-Methylpyrimidin-5-yl)Pyridine-3-Sulfonamide]	400 to 1000 nM	> 2500 nM		
COc1ccc2cnn(C)c2c1NS(=O)(=O)c1ccc(-n2cc(C(C)O)cn2)nc1 (centres unmarked) [Example I-281, 6-(4-(1-Hydroxyethyl)-1H-Pyrazol-1-yl)-N-(6-Methoxy-1-Methyl-1H-Indazol-7-yl)Pyridine-3-Sulfonamide]		1000 to 2500 nM		< 400 nM
CCc1ccc2cnn(C)c2c1NS(=O)(=O)c1ccc(-n2ccc(C)n2)nc1 [Example I-33, N-(6-Ethyl-1-Methyl-1H-Indazol-7-yl)-6-(3-Methyl-1H-Pyrazol-1-yl)Pyridine-3-Sulfonamide]	< 400 nM	< 400 nM		
Cn1ncc2cccc(NS(=O)(=O)c3ccc(N4CC(C)(C)OC4=O)nc3)c21 [Example I-224, 6-(5,5-Dimethyl-2-Oxooxazolidin-3-yl)-N-(1-Methyl-1H-Indazol-7-yl)Pyridine-3-Sulfonamide]	< 400 nM	> 2500 nM		
COc1ccc2cnn(C)c2c1N(C)S(=O)(=O)c1ccc(-n2cc(C(C)C)cn2)nc1 [Example I-172, 6-(4-isopropylpyrazol-1-yl)-N-(6-methoxy-1-methylindazol-7-yl)-N-methylpyridine-3-sulfonamide]	400 to 1000 nM	< 400 nM		
Cn1ncc2cccc(NS(=O)(=O)c3ccc(-n4nccc4C4CC4)nc3)c21 [Example I-62, 6-(5-Cyclopropylpyrazol-1-yl)-N-(1-Methylindazol-7-yl)Pyridine-3-Sulfonamide]	< 400 nM	> 2500 nM		
Cn1ncc2ccc(O)c(NS(=O)(=O)c3ccc(-n4cc(C(F)(F)F)cn4)nc3)c21 [Example I-159, N-(6-Hydroxy-1-Methyl-1H-Indazol-7-yl)-6-(4-(Trifluoromethyl)-1H-Pyrazol-1-yl)Pyridine-3-Sulfonamide]	< 400 nM	< 400 nM		
CN(C)c1ccc(-c2ccc(S(=O)(=O)Nc3cccc4cnn(C)c34)cn2)cn1 [Example I-110, 6′-(Dimethylamino)-N-(1-Methyl-1H-Indazol-7-yl)-[2,3′-Bipyridine]-5-Sulfonamide]	< 400 nM	> 2500 nM		
COc1ncc2cnn(C)c2c1NS(=O)(=O)c1ccc(-n2ccc(C)n2)nc1 [Example I-197, N-{6-methoxy-1-methylpyrazolo[4,3-c]pyridin-7-yl}-6-(3-methylpyrazol-1-yl)pyridine-3-sulfonamide]	< 400 nM	< 400 nM		
